Assay results from PubChem BioAssay AID1963851 (Molecular Pharmacology Branch, DTP, NCI, 2024).

Tested on: 188146-221-R-J1-PDC complex spheroid viability
Experiment: Anticancer human tumor 188146-221-R-J1-PDC patient-derived colon adenocarcinoma cell line growth inhibition [POLQ]
Details: for IC50: curve of first compound; for viability, T/C: stronger effect = lower value
How it was run: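 Complex spheroid viability model combining PDC tumour cells with endothelial (HUVEC) and MSC stromal cells. Novobiocin, ART-558 or RP6685 were tested singly and in combination with standard and investigational anticancer drugs. Each was titrated in half-log steps from near clinical Cmax, or from 10 microM where Cmax was unknown.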

[1] = second compound 0.0316 µM, first compound 0.0316 µM
[2] = second compound 0.0316 µM, first compound 0.1 µM
[3] = second compound 0.0316 µM, first compound 0.316 µM
[4] = second compound 0.0316 µM, first compound 1 µM
[5] = second compound 0.0316 µM, first compound 3.16 µM
[6] = second compound 0.0316 µM, first compound 10 µM
[7] = second compound 0.1 µM, first compound 0.0316 µM
[8] = second compound 0.1 µM, first compound 0.1 µM
[9] = second compound 0.1 µM, first compound 0.316 µM
[10] = second compound 0.1 µM, first compound 1 µM
[11] = second compound 0.1 µM, first compound 3.16 µM
[12] = second compound 0.1 µM, first compound 10 µM
[13] = second compound 0.316 µM, first compound 0.0316 µM
[14] = second compound 0.316 µM, first compound 0.1 µM
[15] = second compound 0.316 µM, first compound 0.316 µM
[16] = second compound 0.316 µM, first compound 1 µM
[17] = second compound 0.316 µM, first compound 3.16 µM
[18] = second compound 0.316 µM, first compound 10 µM
[19] = second compound 1 µM, first compound 0.0316 µM
[20] = second compound 1 µM, first compound 0.1 µM
[21] = second compound 1 µM, first compound 0.316 µM
[22] = second compound 1 µM, first compound 1 µM
[23] = second compound 1 µM, first compound 3.16 µM
[24] = second compound 1 µM, first compound 10 µM
[25] = second compound 3.16 µM, first compound 0.0316 µM
[26] = second compound 3.16 µM, first compound 0.1 µM
[27] = second compound 3.16 µM, first compound 0.316 µM
[28] = second compound 3.16 µM, first compound 1 µM
[29] = second compound 3.16 µM, first compound 3.16 µM
[30] = second compound 3.16 µM, first compound 10 µM
[31] = second compound 10 µM, first compound 0.0316 µM
[32] = second compound 10 µM, first compound 0.1 µM
[33] = second compound 10 µM, first compound 0.316 µM
[34] = second compound 10 µM, first compound 1 µM
[35] = second compound 10 µM, first compound 3.16 µM
[36] = second compound 10 µM, first compound 10 µM
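Also: spheroids exposed to compounds for seven days.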
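For viability, T/C in this document: 100% = DMSO vehicle control viability.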

CCCS(=O)(=O)Nc1ccc(F)c(C(=O)c2c[nH]c3ncc(-c4ccc(Cl)cc4)cc23)c1F + Cc1cccc(N(C)C(=O)C2C(O)CCN2c2nc(C)cc(C(F)(F)F)c2C#N)c1
IC50 (second compound 0.0316 µM): 9.75 µM
IC50 (second compound 0.1 µM): 6.82 µM
IC50 (second compound 0.316 µM): 6.53 µM
IC50 (second compound 1 µM): 6.44 µM
IC50 (second compound 3.16 µM): 7.14 µM
IC50 (second compound 10 µM): 5.88 µM
viability, T/C [1]: 117%
viability, T/C [2]: 96.5%
viability, T/C [3]: 102%
viability, T/C [4]: 87.1%
viability, T/C [5]: 78.8%
viability, T/C [6]: 47.3%
viability, T/C [7]: 113%
viability, T/C [8]: 97.3%
viability, T/C [9]: 106%
viability, T/C [10]: 91%
viability, T/C [11]: 85.8%
viability, T/C [12]: 33.4%
viability, T/C [13]: 116%
viability, T/C [14]: 112%
viability, T/C [15]: 99.2%
viability, T/C [16]: 88.3%
viability, T/C [17]: 90.9%
viability, T/C [18]: 29.2%
viability, T/C [19]: 93.4%
viability, T/C [20]: 98.1%
viability, T/C [21]: 101%
viability, T/C [22]: 90.6%
viability, T/C [23]: 81.5%
viability, T/C [24]: 30.7%
viability, T/C [25]: 107%
viability, T/C [26]: 104%
viability, T/C [27]: 104%
viability, T/C [28]: 77.4%
viability, T/C [29]: 96.4%
viability, T/C [30]: 31%
viability, T/C [31]: 106%
viability, T/C [32]: 97.7%
viability, T/C [33]: 105%
viability, T/C [34]: 85.1%
viability, T/C [35]: 92.6%
viability, T/C [36]: 13.4%

CC1COCCN1c1cc(C2(O)CC3CCC(C2)O3)c2cnn(-c3ccn[nH]3)c2n1 (centres undefined) + Nc1ccc(C#CCN(C(=O)Cc2ncc(C(F)(F)F)cc2C(F)(F)F)c2ccc(F)cc2)nn1
IC50 (second compound 0.0316 µM): 0.328 µM
IC50 (second compound 0.1 µM): 0.35 µM
IC50 (second compound 0.316 µM): 0.249 µM
IC50 (second compound 1 µM): 0.288 µM
IC50 (second compound 3.16 µM): 0.289 µM
IC50 (second compound 10 µM): 0.209 µM
viability, T/C [1]: 88.7%
viability, T/C [2]: 76.8%
viability, T/C [3]: 49.4%
viability, T/C [4]: 27%
viability, T/C [5]: 18.9%
viability, T/C [6]: 8.36%
viability, T/C [7]: 109%
viability, T/C [8]: 77.2%
viability, T/C [9]: 54.2%
viability, T/C [10]: 29.2%
viability, T/C [11]: 18%
viability, T/C [12]: 8.08%
viability, T/C [13]: 105%
viability, T/C [14]: 72.1%
viability, T/C [15]: 44.2%
viability, T/C [16]: 24.3%
viability, T/C [17]: 17%
viability, T/C [18]: 7.87%
viability, T/C [19]: 95.8%
viability, T/C [20]: 70.5%
viability, T/C [21]: 52%
viability, T/C [22]: 24.3%
viability, T/C [23]: 15.6%
viability, T/C [24]: 8.87%
viability, T/C [25]: 89.9%
viability, T/C [26]: 80.7%
viability, T/C [27]: 43.9%
viability, T/C [28]: 26%
viability, T/C [29]: 18.2%
viability, T/C [30]: 7.84%
viability, T/C [31]: 87.7%
viability, T/C [32]: 66%
viability, T/C [33]: 41.4%
viability, T/C [34]: 21.1%
viability, T/C [35]: 18.1%
viability, T/C [36]: 7.06%
